The values below come from paper PMC10778980, “Profiling Novel Quinuclidine-Based Derivatives as Potential Anticholinesterase Drugs: Enzyme Inhibition and Effects on Cell Viability” (International Journal of Molecular Sciences, 2023).

One experiment deals with T1, human AChE (Homo sapiens, UniProt P22303).
T1 construct: The sources of human AChE and BChE were native erythrocytes and plasma, respectively; from tissue; host or cells: human erythrocytes from venous blood of a healthy volunteer
Description: Reversible inhibition of AChE (Ellman's procedure, Hunter–Downs evaluation). The conditions noted are these: for Ki: Ki ± standard error, 0.1, 0.2, 0.35 and 0.5 mM substrate ATCh, 25 °C, pH 7.4; for Ki (AChE)/Ki (BChE): selectivity ratio. The experiment is classed as biochemical. From the text:
(§1) Cholinesterase substrate acetylthiocholine (ATCh) and the thiol reagent 5,5′-dithiobis(2-nitrobenzoic acid) (DTNB) for the enzyme activity measurement were purchased from Sigma-Aldrich (St. Louis, MO, USA). The sources of human AChE and BChE were native erythrocytes and plasma, respectively, obtained from the blood of a healthy volunteer and in accordance with the approval of the Ethics Committee of the Institute for Medical Research and Occupational Health (approval number: 100-21/23-6). Erythrocytes and plasma were isolated from the whole blood and prepared according to a previously published procedure. Namely, venous blood was collected into a heparinized tube and centrifuged (at 4 °C, 20 min on 2500 rpm, Eppendorf centrifuge 5702R) to separate plasma from the erythrocytes. Plasma was removed and used as a source of BChE, while erythrocytes were washed twice with the 0.1 M sodium phosphate buffer, pH 7.4, in a volume corresponding to the initial volume of the whole blood. Both plasma and erythrocytes were frozen at −20 °C until use. Quinuclidine compounds were dissolved in dH2O as 10 or 100 mM; exceptionally, 3-hydroxyimino compounds with longer chains (C12−C16) were dissolved in DMSO as 100 mM solutions. Stock solutions were kept at 4 °C until use. Further dilutions were made in distilled water.
(§2) The reversible inhibition experiments followed a previously published procedure. Namely, the enzyme activity was measured in the presence of a wide range of quinuclidine compound concentrations and in the substrate range from 0.1 to 0.5 mM to confirm the type of compound binding. The activity was assayed following the Ellman’s procedure, with the modification in the wavelength used for detection of the TNB anion in the case of AChE activity measurement due to the interference of the hemoglobin, and according to Worek et al.. The assay was performed in 96-well plates on an Infinite M200PRO plate reader (Tecan Austria GmbH, Salzburg, Austria) at 25 °C. Each concentration was tested in triplicate or quadruplicate on each plate. The inhibition mixture contained 0.1 M sodium phosphate buffer, pH 7.4, enzyme (AChE or BChE), quinuclidine compound (0.2–400 μM final), DTNB (0.3 mM final), and ATCh (from 0.1 to 0.5 mM final) to start the reaction. The increase in absorbance was read at 436 nm for AChE and at 412 nm for BChE. The measured activity in the presence of compounds was corrected for the non-enzymatic hydrolysis of substrate ATCh, if detected. The reversible enzyme–quinuclidine complex dissociation constants (the inhibition constants) Ki were evaluated from the effect of the substrate concentration on the degree of inhibition according to the Hunter–Downs equation as described previously, taking into account only quinuclidine concentrations where 20–80% inhibition of the activity was observed.

The next experiment deals with T2, human BChE (Homo sapiens, UniProt P06276).
T2 construct: Plasma was removed and used as a source of BChE; from tissue; host or cells: human blood plasma from a healthy volunteer
Description: biochemical.
From the text: as §1, §2

In another experiment the test system is SH-SY5Y cells. Description: Cytotoxicity assay (MTS) on SH-SY5Y. The experiment is classed as cell-based. The conditions noted are these: Homo sapiens. As to the method:
(§3) SH-SY5Y cells were grown in DMEM F12 (Sigma-Aldrich, St. Louis, MO, USA) supplemented with 15% (v/v) fetal bovine serum (FBS), 2 mM glutamine, and 1% (v/v) non-essential amino acids (NEAA). HepG2 cells were grown in EMEM supplemented with 10% (v/v) FBS, 2 mM glutamine, and 1% (v/v) non-essential amino acids NEAA. All media and supplements were purchased from Sigma-Aldrich, Steinheim, Germany.
(§4) The procedure followed a previously described protocol.

In another experiment the test system is HepG2 cells. Description: Cytotoxicity assay (MTS) on HepG2. The experiment is classed as cell-based. The conditions noted are these: Homo sapiens. As to the method:
as §3, §4

[1] abbreviates: Ki ± standard error, 0.1, 0.2, 0.35 and 0.5 mM substrate ATCh, 25 °C, pH 7.4, read-out: Ki BChE.
The mark [2] stands for this setting: 4 h exposure, read-out: IC50 ± SE SH-SY5Y 4 h.
[3] abbreviates: 24 h exposure, read-out: IC50 ± SE SH-SY5Y 24 h.
Setting [4] is: read-out: IC50 ± SE SH-SY5Y 1 h, 1 h exposure.
Setting [5] is: HepG2, read-out: IC50 ± SE HepG2 1 h, 1 h exposure.
[6] abbreviates: HepG2, 4 h exposure, read-out: IC50 ± SE HepG2 4 h.
The mark [7] stands for this setting: HepG2, 24 h exposure, read-out: IC50 ± SE HepG2 24 h.

Read-outs that look alike come from different tables or passages of the source.

T2 sequence (P06276 29-602): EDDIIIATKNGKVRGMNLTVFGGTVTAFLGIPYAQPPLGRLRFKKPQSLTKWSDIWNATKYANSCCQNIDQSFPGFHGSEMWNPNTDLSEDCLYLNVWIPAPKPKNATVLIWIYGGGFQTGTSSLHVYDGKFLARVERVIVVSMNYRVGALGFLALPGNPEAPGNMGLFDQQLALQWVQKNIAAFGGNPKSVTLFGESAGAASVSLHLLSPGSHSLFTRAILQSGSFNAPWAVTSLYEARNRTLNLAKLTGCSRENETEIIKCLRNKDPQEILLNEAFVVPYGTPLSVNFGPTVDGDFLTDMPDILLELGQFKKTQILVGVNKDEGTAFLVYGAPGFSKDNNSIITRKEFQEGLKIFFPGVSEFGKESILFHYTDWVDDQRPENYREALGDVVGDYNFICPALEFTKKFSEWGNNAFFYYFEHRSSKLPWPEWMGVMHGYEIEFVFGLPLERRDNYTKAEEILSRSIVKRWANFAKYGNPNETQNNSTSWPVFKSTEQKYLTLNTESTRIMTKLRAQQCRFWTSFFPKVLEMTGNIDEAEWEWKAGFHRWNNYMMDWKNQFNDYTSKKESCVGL
T1 sequence (P22303 32-617 isoform P22303-2 limits assumed): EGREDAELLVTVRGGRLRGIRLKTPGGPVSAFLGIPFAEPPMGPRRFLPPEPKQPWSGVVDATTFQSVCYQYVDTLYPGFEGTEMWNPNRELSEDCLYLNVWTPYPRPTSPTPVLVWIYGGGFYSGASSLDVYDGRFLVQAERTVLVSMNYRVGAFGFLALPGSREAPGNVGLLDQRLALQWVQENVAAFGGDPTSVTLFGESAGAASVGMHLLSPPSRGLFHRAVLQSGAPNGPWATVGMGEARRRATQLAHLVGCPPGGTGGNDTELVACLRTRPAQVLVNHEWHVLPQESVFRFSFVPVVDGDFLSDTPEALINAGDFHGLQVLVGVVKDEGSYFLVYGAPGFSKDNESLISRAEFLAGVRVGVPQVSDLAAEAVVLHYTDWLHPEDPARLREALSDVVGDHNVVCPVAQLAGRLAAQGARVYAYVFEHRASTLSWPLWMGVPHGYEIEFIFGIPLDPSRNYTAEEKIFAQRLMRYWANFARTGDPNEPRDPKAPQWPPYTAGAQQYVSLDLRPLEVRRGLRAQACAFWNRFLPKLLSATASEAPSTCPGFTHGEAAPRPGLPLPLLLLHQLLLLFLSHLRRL

For orientation: Ki means the equilibrium dissociation constant of an inhibitor or competing ligand from its target. Usually IC50 stands for the concentration needed to halve the response being measured. For `ON=C1C[N+]2(CCCCCCCC[N+]34CCC(CC3)C(=NO)C4)CCC1CC2` [Compound 13, 1,1’-(octano)bis(3-hydroxyiminoquinuclidinium bromide)], the Ki was determined as 1.8 ± 0.07 µM on human AChE and 3.4 ± 0.2 µM on human BChE (setting [1]). Further, the “Ki (AChE)/Ki (BChE)” value at human AChE amounted to 0.5. Further, the concentration for half-maximal inhibition (IC50) with SH-SY5Y cells (setting [2]), with SH-SY5Y cells (setting [3]), with SH-SY5Y cells (setting [4]), in the experiment with HepG2 cells (setting [5]), in the experiment with HepG2 cells (setting [6]) and in the experiment on HepG2 cells (setting [7]) was no less than 800 µM throughout.
For `OC1C[N+]2(CCCCCCCC[N+]34CCC(CC3)C(O)C4)CCC1CC2` (stereo not shown) [Compound 6, 1,1′-(octano)bis(3-hydroxyquinuclidinium bromide)], the inhibition constant (Ki) worked out at 24 ± 1.1 µM at human AChE and 12.9 ± 1 µM at human BChE (setting [1]). Also, the “Ki (AChE)/Ki (BChE)” value on human AChE is 1.9. Further, the IC50 in the experiment on SH-SY5Y cells (setting [2]), in the experiment with SH-SY5Y cells (setting [3]), in the experiment on SH-SY5Y cells (setting [4]), with HepG2 cells (setting [5]), in the experiment on HepG2 cells (setting [6]) and in the experiment on HepG2 cells (setting [7]) was no less than 800 µM in each case.
Consider `ON=C1C[N+]2(CCCCCCCCCC[N+]34CCC(CC3)C(=NO)C4)CCC1CC2` [Compound 14, 1,1’-(decano)bis(3-hydroxyiminoquinuclidinium bromide)], for which the “times less efficient than donepezil” value on human AChE (AChE Ki compared to donepezil) is listed as “around 60”. Further, the Ki on human AChE stood at 0.26 ± 0.02 µM; at human BChE (setting [1]), 1.2 ± 0.06 µM. For the same compound, the “Ki (AChE)/Ki (BChE)” value on human AChE was found to be 0.2. The concentration for half-maximal inhibition (IC50) in the experiment with SH-SY5Y cells (setting [2]), in the experiment on SH-SY5Y cells (setting [3]), with SH-SY5Y cells (setting [4]), in the experiment with HepG2 cells (setting [5]), in the experiment with HepG2 cells (setting [6]) and in the experiment with HepG2 cells (setting [7]) was no less than 800 µM each time.
On to `CCCCCCCCCC[N+]12CCC(CC1)C(=NO)C2.[Br-]` [Compound 9, 1-decyl-3-hydroxyiminoquinuclidinium bromide], for which the Ki at human AChE is 23.8 ± 0.8 µM; at human BChE, 5.2 ± 1.1 µM. The “Ki (AChE)/Ki (BChE)” value at human AChE amounted to 4.6. The half-maximal inhibitory concentration (IC50) in the experiment on SH-SY5Y cells (setting [2]), in the experiment on SH-SY5Y cells (setting [3]), in the experiment on SH-SY5Y cells (setting [4]), in the experiment with HepG2 cells (setting [5]), in the experiment with HepG2 cells (setting [6]) and with HepG2 cells (setting [7]) was no less than 800 µM throughout.
Take `CCCCCCCC[N+]12CCC(CC1)C(=NO)C2.[Br-]` [Compound 8, 1-octyl-3-hydroxyiminoquinuclidinium bromide]: the Ki on human AChE was 82.7 ± 3.5 µM; on human BChE it was 37.9 ± 10.4 µM. In addition, the “Ki (AChE)/Ki (BChE)” value at human AChE amounted to 2.2. The IC50 in the experiment with SH-SY5Y cells (setting [2]), in the experiment with SH-SY5Y cells (setting [3]), with SH-SY5Y cells (setting [4]), in the experiment on HepG2 cells (setting [5]), in the experiment with HepG2 cells (setting [6]) and in the experiment on HepG2 cells (setting [7]) was no less than 800 µM each time.
With `OC1C[N+]2(CCCCCCCCCC[N+]34CCC(CC3)C(O)C4)CCC1CC2` (stereo not shown) [Compound 7, 1,1’-(decano)bis(3-hydroxyquinuclidinium bromide)], the inhibitory constant (Ki) was 0.52 ± 0.05 µM at human AChE and 1.6 ± 0.2 µM at human BChE (setting [1]). Also, at human AChE, the “Ki (AChE)/Ki (BChE)” value worked out at 0.3. Also, the IC50 in the experiment on SH-SY5Y cells (setting [2]), in the experiment on SH-SY5Y cells (setting [3]), with SH-SY5Y cells (setting [4]), in the experiment with HepG2 cells (setting [5]), in the experiment on HepG2 cells (setting [6]) and with HepG2 cells (setting [7]) was no less than 800 µM each time.
In the case of `CCCCCCCCCC[N+]12CCC(CC1)C(O)C2` (stereo not shown) [Compound 2], the Ki was determined as 63.8 ± 5.1 µM at human AChE and 11.8 ± 1.1 µM at human BChE (setting [1]). Further, the “Ki (AChE)/Ki (BChE)” value at human AChE is listed as 5.4. For the same compound, the half-maximal inhibitory concentration (IC50) in the experiment with SH-SY5Y cells (setting [2]) was no less than 800 µM; in the experiment with SH-SY5Y cells (setting [3]), no less than 800 µM; in the experiment with SH-SY5Y cells (setting [4]), no less than 800 µM; with HepG2 cells (setting [5]), no less than 800 µM; in the experiment with HepG2 cells (setting [6]), no less than 800 µM; in the experiment on HepG2 cells (setting [7]), no less than 537 µM.
In the case of `CCCCCCCC[N+]12CCC(CC1)C(O)C2` (stereo not shown) [Compound 1], the values for the Ki on human AChE and on human BChE (setting [1]) were 156 ± 26.1 µM and 85.1 ± 22.1 µM, respectively. For the same compound, the “Ki (AChE)/Ki (BChE)” value on human AChE is on record as 1.8. Further, the half-maximal inhibitory concentration (IC50) in the experiment on SH-SY5Y cells (setting [2]), with SH-SY5Y cells (setting [3]), in the experiment on SH-SY5Y cells (setting [4]), in the experiment on HepG2 cells (setting [5]), in the experiment with HepG2 cells (setting [6]) and with HepG2 cells (setting [7]) was no less than 800 µM each time.
